In patent US20260070917A1, “CYCLIN DEPENDENT KINASE DEGRADERS AND METHODS OF USE THEREOF” (Differentiated Therapeutics Inc, priority 2023, published 2026):

Experiments:
Format in all cases: cell-based
[1] = target: T1, CDK2 (Homo sapiens, UniProt P24941); assay: HiBit Assay Protocol for CDK2 (HIBIT protein quantification, degradation); settings: HEK293-CDK2-Hibit cells, compound treatment for 6 hours; for DC50: ABS DC50
T1 construct: host or cells: HEK293-CDK2-Hibit
Procedure, shortened: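 DC50 comes from a fitted curve of remaining CDK2-HiBiT luminescence, referenced to DMSO-treated cells and medium-only wells. HEK293-CDK2-HiBiT cells, plated the previous night, received compounds in a 10-point, 3-fold series for 6 h before lysis with LgBiT-containing Nano-Glo HiBiT reagent.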

[2] = target: T2, CCNE1 (Homo sapiens, UniProt P24864); assay: HiBit Assay Protocol for CCNE1 (HIBIT protein quantification, degradation); settings: HEK293-CCNE1-Hibit cells, compound treatment for 6 hours
T2 construct: host or cells: HEK293-CCNE1-Hibit
Procedure, shortened: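 Degradation readout: lytic Nano-Glo HiBiT luminescence after 6 h exposure of HEK293-CCNE1-HiBiT cells to 10-point, 3-fold serial dilutions. Signal was scaled between medium-only and DMSO-treated wells, and DC50 came from curve fits.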

[3] = target: T3, CDK9 (Homo sapiens, UniProt P50750); assay: HiBit Assay Protocol for CDK9 (HIBIT protein quantification, degradation); settings: 6 h, HEK293-CDK9-Hibit cells, compound treatment for 6 hours; read-out: CDK9 HIBIT Protein Quantification Maximum
T3 construct: host or cells: HEK293-CDK9-Hibit
Procedure, shortened: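 Degradation read-out: luminescence after lytic HiBiT/LgBiT detection in HEK293-CDK9-HiBiT cells exposed 6 h to 10-point, 3-fold compound dilutions. Signal scaled between 0.1% DMSO-treated cells and medium alone; DC50 fitted from the curve.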

T2 sequence (P24864 whole entry): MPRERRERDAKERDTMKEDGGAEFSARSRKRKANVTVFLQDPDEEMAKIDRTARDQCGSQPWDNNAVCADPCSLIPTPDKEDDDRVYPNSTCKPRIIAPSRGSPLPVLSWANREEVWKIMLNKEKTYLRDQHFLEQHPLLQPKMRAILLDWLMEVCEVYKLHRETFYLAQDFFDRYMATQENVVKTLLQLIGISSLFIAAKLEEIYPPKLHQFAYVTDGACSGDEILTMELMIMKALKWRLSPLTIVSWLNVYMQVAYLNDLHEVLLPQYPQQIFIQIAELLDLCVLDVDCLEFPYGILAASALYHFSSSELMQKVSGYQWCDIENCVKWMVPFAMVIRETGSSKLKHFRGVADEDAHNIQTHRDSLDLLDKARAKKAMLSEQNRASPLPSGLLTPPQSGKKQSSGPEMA
T3 sequence (P50750 whole entry): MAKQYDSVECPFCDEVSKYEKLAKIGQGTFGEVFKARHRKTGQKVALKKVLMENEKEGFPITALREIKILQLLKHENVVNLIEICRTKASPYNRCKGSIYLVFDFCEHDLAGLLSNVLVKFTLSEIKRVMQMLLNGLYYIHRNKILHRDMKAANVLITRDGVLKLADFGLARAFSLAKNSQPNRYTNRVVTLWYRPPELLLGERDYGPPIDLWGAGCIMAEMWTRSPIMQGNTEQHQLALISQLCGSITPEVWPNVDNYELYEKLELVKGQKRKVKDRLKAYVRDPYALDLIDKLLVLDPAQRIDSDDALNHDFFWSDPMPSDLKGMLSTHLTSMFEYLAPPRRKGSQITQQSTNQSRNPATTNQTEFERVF

| Structure (SMILES) | CDK2 HIBIT Protein Quantification Maximum [1] [%] | DC50 [1] [nM] | CCNE1 HIBIT Protein Quantification Maximum [2] [%] | Dmax [3] [%] |
| --- | --- | --- | --- | --- |
| CC1CCCC1N1C(=O)C2(CC2)c2cnc(NC3CCN(S(=O)(=O)N4CC(N(C)C(=O)CCCc5ccc6c(c5)n(C)c(=O)n6C5CCC(=O)NC5=O)C4)CC3)nc21 (centres unmarked) [Compound 61] | 60 | 3 | 29 | 23 |
| CC1CCCC1N1C(=O)C2(CC2)c2cnc(NC3CCN(S(=O)(=O)N4CCCC45CCN(C(=O)CCCc4ccc6c(c4)n(C)c(=O)n6C4CCC(=O)NC4=O)C5)CC3)nc21 (centres unmarked) [Compound 63] | 15 | – | 2 | 14 |
| CC1CCCC1N1C(=O)C2(CC2)c2cnc(NC3CCN(S(=O)(=O)N4CCC5(CCCN5C(=O)CCCc5ccc6c(c5)n(C)c(=O)n6C5CCC(=O)NC5=O)C4)CC3)nc21 (centres unmarked) [Compound 64] | 29 | – | 18 | 17 |
| CC1CCCC1N1C(=O)C2(CC2)c2cnc(NC3CCN(S(=O)(=O)N4CC5(CCCCN5C(=O)CCCc5ccc6c(c5)n(C)c(=O)n6C5CCC(=O)NC5=O)C4)CC3)nc21 (centres unmarked) [Compound 65] | 30 | – | 4 | 9 |
| CC1CCCC1N1C(=O)C2(CC2)c2cnc(NC3CCN(S(=O)(=O)N4CC5(CCCN(C(=O)CCCc6ccc7c(c6)n(C)c(=O)n7C6CCC(=O)NC6=O)C5)C4)CC3)nc21 (centres unmarked) [Compound 66] | 39 | – | 14 | 8 |
| CC1CCCC1N1C(=O)C2(CC2)c2cnc(NC3CCN(S(=O)(=O)N4CC5(CCN(C(=O)CCCc6ccc7c(c6)n(C)c(=O)n7C6CCC(=O)NC6=O)CC5)C4)CC3)nc21 (centres unmarked) [Compound 68] | 38 | – | 9 | 6 |
| CC1CCCC1N1C(=O)C2(CC2)c2cnc(NC3CCN(S(=O)(=O)N4CC5C4CCN5C(=O)CCCc4ccc5c(c4)n(C)c(=O)n5C4CCC(=O)NC4=O)CC3)nc21 (centres unmarked) [Compound 69] | 13 | – | 8 | 8 |
| CC1CCCC1N1C(=O)C2(CC2)c2cnc(NC3CCN(S(=O)(=O)N4CC5CN(C(=O)CCCc6ccc7c(c6)n(C)c(=O)n7C6CCC(=O)NC6=O)CC54)CC3)nc21 (centres unmarked) [Compound 70] | −3 | – | 6 | 15 |
| CC1CCCC1N1C(=O)C2(CC2)c2cnc(NC3CCN(S(=O)(=O)N4CCCN(C(=O)CCCc5ccc6c(c5)n(C)c(=O)n6C5CCC(=O)NC5=O)CC4)CC3)nc21 (centres unmarked) [Compound 72] | 25 | – | 8 | 42 |
| CC1CCCC1N1C(=O)C2(CC2)c2cnc(NC3CCN(S(=O)(=O)N4CCCC45CCN(C(=O)CCCCCc4ccc6c(c4)n(C)c(=O)n6C4CCC(=O)NC4=O)C5)CC3)nc21 (centres unmarked) [Compound 74] | 19 | – | 29 | 8 |
| CC1CCCC1N1C(=O)C2(CC2)c2cnc(NC3CCN(S(=O)(=O)N4CC5(CCCCN5C(=O)CCCCCc5ccc6c(c5)n(C)c(=O)n6C5CCC(=O)NC5=O)C4)CC3)nc21 (centres unmarked) [Compound 76] | 29 | – | 20 | 9 |
| CC1CCCC1N1C(=O)C2(CC2)c2cnc(NC3CCN(S(=O)(=O)N4CCN(C(=O)CCCCCc5ccc6c(c5)n(C)c(=O)n6C5CCC(=O)NC5=O)CC4)CC3)nc21 (centres unmarked) [Compound 77] | 46 | – | 25 | 40 |
| CC1CCCC1N1C(=O)C2(CC2)c2cnc(NC3CCN(S(=O)(=O)N4CC5C4CCN5C(=O)CCCCCc4ccc5c(c4)n(C)c(=O)n5C4CCC(=O)NC4=O)CC3)nc21 (centres unmarked) [Compound 78] | 29 | – | 17 | 23 |
| CC1CCCC1N1C(=O)C2(CC2)c2cnc(NC3CCN(S(=O)(=O)N4CC5CN(C(=O)CCCCCc6ccc7c(c6)n(C)c(=O)n7C6CCC(=O)NC6=O)CC54)CC3)nc21 (centres unmarked) [Compound 79] | 6 | – | 16 | 21 |

Further lines, results first:

| CDK2 HIBIT Protein Quantification Maximum [1] [%] | DC50 [1] [nM] | CCNE1 HIBIT Protein Quantification Maximum [2] [%] | Dmax [3] [%] | Structure (SMILES) |
| --- | --- | --- | --- | --- |
| 24 | – | 29 | 8 | CC1CCCC1N1C(=O)C2(CC2)c2cnc(NC3CCN(S(=O)(=O)N4CCCN(C(=O)CCCCCc5ccc6c(c5)n(C)c(=O)n6C5CCC(=O)NC5=O)CC4)CC3)nc21 (centres unmarked) [Compound 80] |
| 50 | 8 | 15 | 14 | CC1CCCC1N1C(=O)C2(CC2)c2cnc(NC3CCN(S(=O)(=O)C4CCN(C(=O)CCCCCc5ccc6c(c5)n(C)c(=O)n6C5CCC(=O)NC5=O)C4)CC3)nc21 (centres unmarked) [Compound 81] |
| 26 | – | 43 | 11 | CC1CCCC1N1C(=O)C2(CC2)c2cnc(NC3CCN(S(=O)(=O)C4CCCN(C(=O)CCCCCc5ccc6c(c5)n(C)c(=O)n6C5CCC(=O)NC5=O)C4)CC3)nc21 (centres unmarked) [Compound 82] |
| 29 | – | 13 | 16 | CC1CCCC1N1C(=O)C2(CC2)c2cnc(NC3CCN(S(=O)(=O)N4CC5(CCN(C(=O)CCCCCCCc6ccc7c(c6)n(C)c(=O)n7C6CCC(=O)NC6=O)CC5)C4)CC3)nc21 (centres unmarked) [Compound 83] |
| 53 | 21 | 47 | 30 | CC1CCCC1N1C(=O)C2(CC2)c2cnc(NC3CCN(S(=O)(=O)C4CCN(C(=O)CCCCCCCc5ccc6c(c5)n(C)c(=O)n6C5CCC(=O)NC5=O)C4)CC3)nc21 (centres unmarked) [Compound 84] |
| 17 | – | 41 | 14 | CC1CCCC1N1C(=O)C2(CC2)c2cnc(NC3CCN(S(=O)(=O)C4CCCN(C(=O)CCCCCCCc5ccc6c(c5)n(C)c(=O)n6C5CCC(=O)NC5=O)C4)CC3)nc21 (centres unmarked) [Compound 85] |
| 65 | 16 | 37 | 34 | CC1CCCC1N1C(=O)C2(CC2)c2cnc(NC3CCN(S(=O)(=O)N4CC(N(C)C(=O)CCCCCCCCCc5ccc6c(c5)n(C)c(=O)n6C5CCC(=O)NC5=O)C4)CC3)nc21 (centres unmarked) [Compound 86] |
| 44 | – | 11 | 13 | CC1CCCC1N1C(=O)C2(CC2)c2cnc(NC3CCN(S(=O)(=O)N4CC5(CCCN(C(=O)CCCCCCCCCc6ccc7c(c6)n(C)c(=O)n7C6CCC(=O)NC6=O)C5)C4)CC3)nc21 (centres unmarked) [Compound 87] |
| 55 | 7 | 21 | 24 | CC1CCCC1N1C(=O)C2(CC2)c2cnc(NC3CCN(S(=O)(=O)N4CC5(CCN(C(=O)CCCCCCCCCc6ccc7c(c6)n(C)c(=O)n7C6CCC(=O)NC6=O)CC5)C4)CC3)nc21 (centres unmarked) [Compound 88] |
| 50 | – | 25 | 35 | CC1CCCC1N1C(=O)C2(CC2)c2cnc(NC3CCN(S(=O)(=O)N4CCC5(CCN(C(=O)CCCCCCCCCc6ccc7c(c6)n(C)c(=O)n7C6CCC(=O)NC6=O)C5)C4)CC3)nc21 (centres unmarked) [Compound 89] |
